Consider 68 sequences from the supplement of paper PMC11208160.

This data set in a line: recombinant UMI read abundance after kanamycin selection (control-corrected) (log10(CPM+1)); higher = more efficient recombination; extreme values may be limits of the assay; sequences stand for … in AGTGCAGAGAAAATCGGCCAGTTTTCTCTGCCTGCAGTCCGCATGCCGTGGGACCCCTTGGGTTCTAACCTGTTGCCTAGATTTATGCAGCGGACTGCCTTTCTCCCAAAGTGATAAACCGG…AGGTTGGTTTCACT; site = the 11-nt donor. An outline of the steps: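 Pooled Escherichia coli screen of donor and donor-binding-loop pairs for the IS621 bridge recombinase. Each pair sits with a 12-nt UMI on a plasmid carrying a promoterless kanamycin gene. The library was co-electroporated with a target plasmid encoding a fixed target and T7-inducible recombinase, then plated with IPTG (0.07 mM) plus kanamycin, or unselected, each in two replicates. Recombinant UMIs were PCR-amplified across the donor–target junction and sequenced. Counts became CPM, averaged over replicates, scaled by control-derived factors and reported as log10(CPM+1).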
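Further: IS621 bridge recombinase in Escherichia coli cells against a fixed T5 target plasmid.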

Regarding “TGGACTACATGGACCGGTTTTCCCGGTAATCCGTATTTGGA (site TGGACTACTTC)”, the “recombinant UMI read abundance (log10)” value is 0.786.
With “TGGACTTCATGGACCGGTTTTCCCGGTAATCCGTATTTGTG (site TGGACTTCTCA)”, the “recombinant UMI read abundance (log10)” value was 0.248.
Regarding “TGGATTCCATGGACCGGTTTTCCCGGTAATCCGTATTTGAT (site TGGATTCCTAT)”, the “recombinant UMI read abundance (log10)” value turned out to be 0.
Then “TGGCAGGCATGGACCGGTTTTCCCGGTAATCCGTATTTGGC (site TGGCAGGCTGC)”, with 0.909; and “TGGCAGGCATGGACCGGTTTTCCCGGTAATCCGTATTTGGC (site TGGCCGGCTGC)”, with 0.
Then “TGGCAGGCATGGACCGGTTTTCCCGGTAATCCGTATTTGGC (site TGGCGGGCTGC)”, with 0; and “TGGCAGGCATGGACCGGTTTTCCCGGTAATCCGTATTTGGC (site TGGCTGGCTGC)”, with 0; and “TGGCCGGCATGGACCGGTTTTCCCGGTAATCCGTATTTGCC (site TGGCCGGCTGA)”, with 0.00339.
Then “TGGCCGGCATGGACCGGTTTTCCCGGTAATCCGTATTTGCC (site TGGCCGGCTGC)”, with 0.
With “TGGCCGGCATGGACCGGTTTTCCCGGTAATCCGTATTTGCC (site TGGCCGGCTGG)”, the “recombinant UMI read abundance (log10)” value worked out at 1.05.
Next, “TGGCCGGCATGGACCGGTTTTCCCGGTAATCCGTATTTGCC (site TGGCCGGCTGT)”: 0.00896; “TGGCCGTCATGGACCGGTTTTCCCGGTAATCCGTATTTGGC (site TGGCCGACTGC)”: 0.
For the sequence “TGGCCGTCATGGACCGGTTTTCCCGGTAATCCGTATTTGGC (site TGGCCGCCTGC)”, the “recombinant UMI read abundance (log10)” value came out at 0.
Next, “TGGCCGTCATGGACCGGTTTTCCCGGTAATCCGTATTTGGC (site TGGCCGGCTGC)”: 0; “TGGCCGTCATGGACCGGTTTTCCCGGTAATCCGTATTTGGC (site TGGCCGTCTGC)”: 0.431; “TGGCGAGCATGGACCGGTTTTCCCGGTAATCCGTATTTGTT (site TGGCGAGCTAA)”: 1.04.
Turning to “TGGCGGACATGGACCGGTTTTCCCGGTAATCCGTATTTGCA (site TGGCGGACTTG)”, the “recombinant UMI read abundance (log10)” value is 1.67.
Then “TGGCTTACATGGACCGGTTTTCCCGGTAATCCGTATTTGGC (site TGGCTTACTGC)”, with 0.536; and “TGGGAATCATGGACCGGTTTTCCCGGTAATCCGTATTTGCG (site TAGGAATCTCG)”, with 1.35.
Next, “TGGGAATCATGGACCGGTTTTCCCGGTAATCCGTATTTGCG (site TCGGAATCTCG)”: 1.85.
Then “TGGGAATCATGGACCGGTTTTCCCGGTAATCCGTATTTGCG (site TGGGAATCTCG)”, with 2.5.
In the case of “TGGGAATCATGGACCGGTTTTCCCGGTAATCCGTATTTGCG (site TTGGAATCTCG)”, the “recombinant UMI read abundance (log10)” value was 0.459.
Then “TGGGAGACATGGACCGGTTTTCCCGGTAATCCGTATTTGCA (site AGGAAGACTTG)”, with 0.261; and “TGGGAGACATGGACCGGTTTTCCCGGTAATCCGTATTTGCA (site TGGGAGACTTG)”, with 1.7.
Next, “TGGGAGGCATGGACCGGTTTTCCCGGTAATCCGTATTTGAC (site TGGGAGGCTGT)”: 1.46; “TGGGTGCCATGGACCGGTTTTCCCGGTAATCCGTATTTGAC (site TGGGTGCCTGT)”: 0; “TGGTAGCCATGGACCGGTTTTCCCGGTAATCCGTATTTGTT (site TGGTAGCCTAA)”: 0.256.
Then “TGGTCATCATGGACCGGTTTTCCCGGTAATCCGTATTTGAG (site TGGTCATCTCT)”, with 0.0288; and “TGGTGCCCATGGACCGGTTTTCCCGGTAATCCGTATTTGGT (site TGGTGCCCTAC)”, with 0.00779.
Consider “TGGTGTCCATGGACCGGTTTTCCCGGTAATCCGTATTTGAG (site TGGTGTCCTCT)”, for which the “recombinant UMI read abundance (log10)” value was found to be 0.0312.
As to “TGGTTATCATGGACCGGTTTTCCCGGTAATCCGTATTTGTC (site TGGTTATCTGA)”, the “recombinant UMI read abundance (log10)” value came to 0.968.
On to “TGTAAATCATGGACCGGTTTTCCCGGTAATCCGTATTTGTT (site TGTAAATCTAA)”, for which the “recombinant UMI read abundance (log10)” value was determined as 1.13.
“TGTAACGCATGGACCGGTTTTCCCGGTAATCCGTATTTGTG (site TGTAACGCTCA)”: the “recombinant UMI read abundance (log10)” value is 0.0113.
For “TGTACAACATGGACCGGTTTTCCCGGTAATCCGTATTTGAC (site TGTACAACTGT)”, the “recombinant UMI read abundance (log10)” value was determined as 0.315.
Next, “TGTACAACATGGACCGGTTTTCCCGGTAATCCGTATTTGAC (site TGTACACCTGT)”: 0; “TGTACAACATGGACCGGTTTTCCCGGTAATCCGTATTTGAC (site TGTACAGCTGT)”: 0; “TGTACAACATGGACCGGTTTTCCCGGTAATCCGTATTTGAC (site TGTACATCTGT)”: 0.295.
For “TGTACACCATGGACCGGTTTTCCCGGTAATCCGTATTTGTC (site TGTACACCTGA)”, the “recombinant UMI read abundance (log10)” value turned out to be 0.
Then “TGTACACCATGGACCGGTTTTCCCGGTAATCCGTATTTGTC (site TGTACACCTGC)”, with 0; and “TGTACACCATGGACCGGTTTTCCCGGTAATCCGTATTTGTC (site TGTACACCTGG)”, with 0.
Turning to “TGTACACCATGGACCGGTTTTCCCGGTAATCCGTATTTGTC (site TGTACACCTGT)”, the “recombinant UMI read abundance (log10)” value was found to be 0.
Then “TGTACAGCATGGACCGGTTTTCCCGGTAATCCGTATTTGAC (site TGTACAACTGT)”, with 0; and “TGTACAGCATGGACCGGTTTTCCCGGTAATCCGTATTTGAC (site TGTACACCTGT)”, with 0.
Turning to “TGTACAGCATGGACCGGTTTTCCCGGTAATCCGTATTTGAC (site TGTACAGCTGT)”, the “recombinant UMI read abundance (log10)” value came out at 1.75.
Next, “TGTACAGCATGGACCGGTTTTCCCGGTAATCCGTATTTGAC (site TGTACATCTGT)”: 0.647.
“TGTACATCATGGACCGGTTTTCCCGGTAATCCGTATTTGAC (site TGTACAACTGT)”: the “recombinant UMI read abundance (log10)” value is 0.
With “TGTACATCATGGACCGGTTTTCCCGGTAATCCGTATTTGAC (site TGTACACCTGT)”, the “recombinant UMI read abundance (log10)” value came out at 0.
“TGTACATCATGGACCGGTTTTCCCGGTAATCCGTATTTGAC (site TGTACAGCTGT)”: the “recombinant UMI read abundance (log10)” value came to 0.
Then “TGTACATCATGGACCGGTTTTCCCGGTAATCCGTATTTGAC (site TGTACATCTGT)”, with 0; and “TGTAGCTCATGGACCGGTTTTCCCGGTAATCCGTATTTGAA (site TGTAGCTCTTT)”, with 0.301.
As to “TGTAGCTCATGGACCGGTTTTCCCGGTAATCCGTATTTGGG (site TGTAGCTCTCC)”, the “recombinant UMI read abundance (log10)” value stood at 0.0269.
Next, “TGTAGGACATGGACCGGTTTTCCCGGTAATCCGTATTTGAA (site TGTAGGACTTT)”: 0.373; “TGTCAAACATGGACCGGTTTTCCCGGTAATCCGTATTTGGG (site TGTCAAACTCC)”: 0.00984.
Next, “TGTCAGACATGGACCGGTTTTCCCGGTAATCCGTATTTGTG (site TGTCAGACTCA)”: 0.0321.
Next, “TGTCCTACATGGACCGGTTTTCCCGGTAATCCGTATTTGGA (site TGTCCTACTTC)”: 0.0197.
For “TGTCCTGCATGGACCGGTTTTCCCGGTAATCCGTATTTGTT (site TGTCCTGCTAA)”, the “recombinant UMI read abundance (log10)” value amounted to 0.011.
Then “TGTCGCGCATGGACCGGTTTTCCCGGTAATCCGTATTTGCA (site TGTCGCGCTTG)”, with 0.897.
Next, “TGTCGGACATGGACCGGTTTTCCCGGTAATCCGTATTTGCG (site TGTCGGACTCG)”: 1.4; “TGTGCACCATGGACCGGTTTTCCCGGTAATCCGTATTTGAC (site TGTACACCTGT)”: 0; “TGTGCACCATGGACCGGTTTTCCCGGTAATCCGTATTTGAC (site TGTCCACCTGT)”: 0.0317.
Take “TGTGCACCATGGACCGGTTTTCCCGGTAATCCGTATTTGAC (site TGTGCACCTGT)”: the “recombinant UMI read abundance (log10)” value came out at 0.
Then “TGTGCACCATGGACCGGTTTTCCCGGTAATCCGTATTTGAC (site TGTTCACCTGT)”, with 0; and “TGTGCCCCATGGACCGGTTTTCCCGGTAATCCGTATTTGTA (site TGTACCCCTTA)”, with 0.126; and “TGTGCCCCATGGACCGGTTTTCCCGGTAATCCGTATTTGTA (site TGTCCCCCTTA)”, with 0.0113.
Then “TGTGCCCCATGGACCGGTTTTCCCGGTAATCCGTATTTGTA (site TGTGCCCCTTA)”, with 0.0922.
Next, “TGTGCCCCATGGACCGGTTTTCCCGGTAATCCGTATTTGTA (site TGTTCCCCTTA)”: 0.0156; “TGTGCTGCATGGACCGGTTTTCCCGGTAATCCGTATTTGAA (site TGTGCTGCTTT)”: 0.011.
Consider “TGTGGAACATGGACCGGTTTTCCCGGTAATCCGTATTTGTT (site AGTGGAACTAA)”, for which the “recombinant UMI read abundance (log10)” value was determined as 0.0127.
